Like-named read-outs stand apart in the source and are kept apart here.
Key:
[1] = test system: parkinson's disease, freezing phenomenon; assay: Clinical tests 1 to 7: treatment of parkinsonian patients with DL-threo-DOPS and a decarboxylase inhibitor; type: in vivo, human
Procedure: The patient was a person suffering from parkinson's disease, having a disease history of 12 years after being affected by the disease. The primary clinical features were moderate rigidity of the four limbs and trunk were slight tremor. At about 6 years after the start of the disease, L-DOPA therapy was started.
[…] The patient also had difficulty in writing.
This patient was then treated with DL-threo-DOPS in the following dosage, while keeping the administration of L-DOPA, the decarboxylase inhibitor (benserazide hydrochloride) and trihexyphenidyl hydrochloride at strictly the same dosage throughout the period of trial.
DL-threo-DOPS was orally administered to the patient in the form of a capsule (DL-DOPS content: 200 mg) as follows:
First to 2nd day 6 capsules per day
3rd to 4th day 9 capsules per day
5th to 6th day 12 capsules per day
It is noted that the decarboxylase inhibitor was not newly administered, because it was already administered together with L-DOPA.
The patient was a person suffering from parkinson's disease, whose main syndrome was "pure akinesia" which was first described by one of the present inventors [Narabayashi et al, Advances in Parkinsonism (eds., W. Birkmayer and O. Hornykiewicz) Roche Basle, pages 335-342 (1976)].
But on the other hand, motion such as going up or down the stairs could be done rather normally. Accordingly, such a syndrome is also called paradoxical kinesia.
The patient was treated with DL-threo-DOPS and a decarboxylase inhibitor (carbidopa) in the same dosage as in the above Clinical Test 1.
In the same manner, other patients as shown in Table 1 were treated with threo-DOPS and a decarboxylase inhibitor. The results are shown in Table 1 together with the data in the above Clinical Tests 1 and 2.

parkinson's disease [2] = assay: Speed of response (transit time between two switches), patient of Clinical Test 6; type: in vivo, human; settings: Clinical Test 6 patient
Procedure: The abscissa axis represents time (hour) after administration, and the ordinate axis means transit time (msec). The filled squares represent the transit time after DL-threo-DOPS intake and the open squares on the right side represent the transit time 2 hours after administation of L-DOPA, benserazid hydrochloride and trihexyphenidyl hydrochloride.
In order to quantitatively analyze the improvement of the syndromes in the above clinical tests, a speed of response was measured as to some patients in the tests.
Method for the measurement: The transit time was measured by using two switches (distance: 15 cm) in the same manner as described in Masao Kato and Kazuya Ando, "Parkinson's Disease, Physiopathology and Therapy", page 106, issued by Kanehara Shuppan on Mar. 31, 1978.
Results: The data of the patient in the above Clinical Test 6 are shown in the attached FIG. 1. As is shown in the figure, when it was measured before administration of DL-threo-DOPS (600 mg) and carbidopa (60 mg) and 1, 3, 4, 6 and 8 hours after the administration, the effect peaked at 4 hours after administration, and at the same time, the transit time was shortened about 170 msec as compared to that before administration of the drugs.

parkinson's disease [3] = assay: Surface electromyogram, patient of Clinical Test 6; type: in vivo, human; settings: DL-threo-DOPS 600 mg and carbidopa 60 mg, vs before administration
Procedure: FIGS. 2, 3 and 4 each show surface electromyograms after DL-threo-DOPS and carbidopa were administered in comparison with the surface electromygrams before administration of the drugs. The data of FIG. 2 relate to a tremor of the right upper arm at static state. The data of FIG. 3 relate to tonic stretch reflexes of the extensor muscle of right forearm. The data of FIG. 4 indicate improvement of the skillfulness when flexion and extension movement at the right wrist joint was tried. […] E in FIG. 3 represents the period of passive stretching.
As to the patient in the above Clinical Test 6, the effect of administration of DL-threo-DOPS (600 mg) and carbidopa (60 mg) was measured by surface electromyogram, which was compared with that measured before the administration of drugs.

decarboxylase = settings: DL-threo-DOPS vs DL-erythro-DOPS; printed as "1/10 smaller"; cited from earlier work
parkinson's disease [4] = settings: human, 300 mg intravenous; cited from earlier work
narcolepsy = settings: six patients, 200 mg intravenous; cited from earlier work
[5] = Side effects in the clinical tests; type: in vivo, human
[6] = acute toxicity (LD50) in mice; settings: mouse, in vivo
[7] = test system: L-aromatic amino acid decarboxylase; settings: cited from earlier work; for enzymatic decarboxylation of the stereoisomers: L- and D-, threo- and erythro-isomers; for nature of the norepinephrine formed: product of decarboxylation
brain norepinephrine = settings: rats, cited from earlier work
heart norepinephrine = settings: rats, combination with decarboxylase inhibitor; cited from earlier work
[8] = Clinical Test 1, 3rd day, with L-DOPA, benserazide, trihexyphenidyl
[9] = Clinical Test 1, 5th day, with L-DOPA, benserazide, trihexyphenidyl

In the case of `N[C@H](C(=O)O)[C@H](O)c1ccc(O)c(O)c1` (relative stereo) [DL-threo-DOPS], the behavior and expression [1, 8] is reported as “more active behavior and expression”, the difficulty in writing [1, 8] is reported as “the difficulty in writing had disappeared” and the speaking [1, 8] is reported as “speaking more clearly than before”. For the same molecule, the walking [1, 8] was “much easier”, the “falling down during walking” value [1, 9] was “no falling down during walking within rooms and passageways” and the walking [1, 9] was “could walk smoothly without any assistance and the steps of the walk became almost normal with wide steps”. The “improvement of the syndrome on maintenance” value ([1]; Clinical Test 1, reduced dose of 9 capsules per day) was “the improvement of the syndrome is still continuing”, the “walking and freezing in walking” value ([1]; Clinical Test 2, DL-threo-DOPS 1,800 mg and carbidopa 90 mg) was “the walking was improved and the freezing in walking disappeared” and the walking ([1]; Clinical Test 2, several days after reaching DL-threo-DOPS 1,800 mg and carbidopa 90 mg) was “the walking became almost normal”. For the same molecule, the “shortening of transit time compared to before administration” value (parkinson's disease [2]; 4 hours after DL-threo-DOPS 600 mg and carbidopa 60 mg) was “about 170 msec”, the “time of peak effect on transit time after administration” value (parkinson's disease [2]; DL-threo-DOPS 600 mg and carbidopa 60 mg) was 4 h and the “transit time compared with L-DOPA combination” value (parkinson's disease [2]; vs 2 hours after L-DOPA 100 mg, benserazide 25 mg, trihexyphenidyl hydrochloride 2 mg) was “shorter than the transit time measured at 2 hours after administration of L-DOPA”. The “tremor of the right upper arm at the static state” value (parkinson's disease [3]; FIG. 2) was “remarkably decreased or improved”, the “rigidity (stiffness) of the extensor muscle of the right forearm” value (parkinson's disease [3]; FIG. 3) was “remarkably decreased and improved” and the “tonic stretch reflex of the extensor muscle of the right forearm” value (parkinson's disease [3]; FIG. 3) was “reduced”. The “skillfulness, flexion and extension movement at the right wrist joint” value (parkinson's disease [3]; FIG. 4) was “remarkably improved”, the “rate of decarboxylation relative to DL-erythro-DOPS” value (decarboxylase) was 1/10 and the “effect on parkinson's disease” value (parkinson's disease [4]) was “ineffective”. The effect on narcolepsy (narcolepsy) was “ineffective”.
With `N[C@H](C(=O)O)[C@H](O)c1ccc(O)c(O)c1` (relative stereo) [threo-DOPS, threo-3,4-dihydroxyphenylserine] the serious side effects [5] was “serious side effects were not observed”, the LD50 ([6]; ip) was roughly 10000 mg/kg and the LD50 ([6]; po) was greater than 10000 mg/kg.
For `NC(C(=O)O)C(O)c1ccc(O)c(O)c1` (centres unmarked) [DOPS], the decarboxylation to norepinephrine ([7]; in vivo and in vitro) is given as “can be decarboxylated”.
With `N[C@@H](Cc1ccc(O)c(O)c1)C(=O)O` [L-DOPA, L-3,4-dihydroxyphenylalanine, reference compound] the stiffness and tremor ([1]; Clinical Test 1 patient, earlier L-DOPA 400 mg, benserazide 100 mg, trihexyphenidyl 6 mg daily, oral) was “the stiffness and tremor were improved”, the stiffness and tremor ([1]; Clinical Test 1 patient, earlier L-DOPA therapy) was “improved the stiffness and tremor remarkably” and the freezing ([1]; Clinical Test 1 patient, increased amount of L-DOPA) was “it became worse”.
In the case of `N[C@H](C(=O)O)[C@@H](O)c1ccc(O)c(O)c1` [L-erythro-DOPS, reference compound], the “enzymatic decarboxylation of the stereoisomers” value [7] is listed as “can be decarboxylated” and the “nature of the norepinephrine formed” value [7] is listed as “not natural”.
For `N[C@H](C(=O)O)[C@H](O)c1ccc(O)c(O)c1` [L-threo-DOPS], the “enzymatic decarboxylation of the stereoisomers” value [7] is listed as “can be decarboxylated”, the “nature of the norepinephrine formed” value [7] is listed as “confirmed as natural l-norepinephrine” and the “DOPS-induced rise of norepinephrine in the brain” value (brain norepinephrine; combination with decarboxylase inhibitor) is listed as “did not enhance”. The “accumulation of norepinephrine in the brain” value (brain norepinephrine; injection into a cerebral ventricle) was “remarkable”, the “accumulation of norepinephrine in the brain” value (brain norepinephrine; intraperitoneal administration) was “negligible” and the “penetration through B.B.B.” value (brain norepinephrine) was “poor penetration”. For the same molecule, the “DOPS-induced rise of norepinephrine in the heart” value (heart norepinephrine) was “abolished”.

— patent US4497826A, “Antiparkinsonian agent” (priority 1981, dated 1985)
